Assay results as given in patent publication US4472304A, “(Amido)N-substituted bleomycins, salts thereof and process for preparation thereof” (Nippon Kayaku Kabushiki Kaisha, priority 1981, dated 1984).

Tests used:
Bacillus subtilis = experiment: Antimicrobial activity against Bacillus subtilis (agar plate-cylinder); assay type: cell-based; conditions: standard bleomycin A2 (copper-free) assumed 1,000 mcg potency/mg
Method: (§1) 2. ANT[…] MYC[…] ATCC 607 AND BACILLUS SUBTILIS
(§2) The antimicrobial activity was tested against the captioned test organisms by the method of agar plate-cylinder. The activity was recorded on the assumption that the activity of standard sample of bleomycin A2 (copper-free form) is 1,000 mcg poteney/mg.

[1] = test system: Mycobacterium smegmatis ATCC 607; experiment: Antimicrobial activity against Mycobacterium smegmatis ATCC 607 (agar plate-cylinder); assay type: cell-based; conditions: standard bleomycin A2 (copper-free) assumed 1,000 mcg potency/mg
Method: as §1, §2

Cc1c(N)nc(C(CC(N)=O)NCC(N)C(=O)NC(C)C)nc1C(=O)NC(C(=O)NC(C)C(O)C(C)C(=O)NC(C(=O)NCCc1nc(-c2nc(C(=O)NCCc3c[nH]cn3)cs2)cs1)C(C)O)C(OC1OC(CO)C(O)C(O)C1OC1OC(CO)C(O)C(OC(N)=O)C1O)c1cnc[nH]1 (stereo not drawn) [Compound 3, 2-(4'-Imidazolyl)ethylamino-(amido)N--[isopropyl]-BLM]
Antimicrobial potency of Cu-free compound against Bacillus subtilis (Bacillus subtilis): 593 mcg potency/mg
Antimicrobial potency of Cu-free compound against Mycobacterium smegmatis ATCC 607 [1]: 2778 mcg potency/mg

Cc1c(N)nc(C(CC(N)=O)NCC(N)C(=O)NCc2ccccc2)nc1C(=O)NC(C(=O)NC(C)C(O)C(C)C(=O)NC(C(=O)NCCc1nc(-c2nc(C(=O)NCCc3c[nH]cn3)cs2)cs1)C(C)O)C(OC1OC(CO)C(O)C(O)C1OC1OC(CO)C(O)C(OC(N)=O)C1O)c1cnc[nH]1 (stereo not drawn) [Compound 4, 2-(4'-Imidazolyl)ethylamino-(amido)N--[benzyl]-BLM]
Antimicrobial potency of Cu-free compound against Bacillus subtilis (Bacillus subtilis): 579 mcg potency/mg
Antimicrobial potency of Cu-free compound against Mycobacterium smegmatis ATCC 607 [1]: 6595 mcg potency/mg

Cc1c(N)nc(C(CC(N)=O)NCC(N)C(=O)NCCCNC(C)c2ccccc2)nc1C(=O)NC(C(=O)NC(C)C(O)C(C)C(=O)NC(C(=O)NCCc1nc(-c2nc(C(=O)NCCc3c[nH]cn3)cs2)cs1)C(C)O)C(OC1OC(CO)C(O)C(O)C1OC1OC(CO)C(O)C(OC(N)=O)C1O)c1cnc[nH]1 [Compound 5, 2-(4'-Imidazolyl)ethylamino-(amido)N--[3-((S)-1'-phenylethyl)-aminopropyl]-BLM]
Antimicrobial potency of Cu-free compound against Bacillus subtilis (Bacillus subtilis): 3772 mcg potency/mg
Antimicrobial potency of Cu-free compound against Mycobacterium smegmatis ATCC 607 [1]: 9846 mcg potency/mg

Cc1c(N)nc(C(CC(N)=O)NCC(N)C(=O)NCCN)nc1C(=O)NC(C(=O)NC(C)C(O)C(C)C(=O)NC(C(=O)NCCc1nc(-c2nc(C(=O)NCCc3c[nH]cn3)cs2)cs1)C(C)O)C(OC1OC(CO)C(O)C(O)C1OC1OC(CO)C(O)C(OC(N)=O)C1O)c1cnc[nH]1 (stereo not drawn) [Compound 6, 2-(4'-Imidazolyl)ethylamino-(amido)N--[2-aminoethyl]-BLM]
Antimicrobial potency of Cu-free compound against Bacillus subtilis (Bacillus subtilis): 4453 mcg potency/mg
Antimicrobial potency of Cu-free compound against Mycobacterium smegmatis ATCC 607 [1]: 2396 mcg potency/mg

Cc1c(N)nc(C(CC(N)=O)NCC(N)C(=O)NC(C)C)nc1C(=O)NC(C(=O)NC(C)C(O)C(C)C(=O)NC(C(=O)NCCc1nc(-c2nc(C(=O)NCCCCNC(=N)N)cs2)cs1)C(C)O)C(OC1OC(CO)C(O)C(O)C1OC1OC(CO)C(O)C(OC(N)=O)C1O)c1cnc[nH]1 (stereo not drawn) [Compound 7, 4-Guanidinobutylamino-(amido)N--[isopropyl]-BLM]
Antimicrobial potency of Cu-free compound against Bacillus subtilis (Bacillus subtilis): 1950 mcg potency/mg
Antimicrobial potency of Cu-free compound against Mycobacterium smegmatis ATCC 607 [1]: 6425 mcg potency/mg

Cc1c(N)nc(C(CC(N)=O)NCC(N)C(=O)NCC(F)(F)F)nc1C(=O)NC(C(=O)NC(C)C(O)C(C)C(=O)NC(C(=O)NCCc1nc(-c2nc(C(=O)NCCCCNC(=N)N)cs2)cs1)C(C)O)C(OC1OC(CO)C(O)C(O)C1OC1OC(CO)C(O)C(OC(N)=O)C1O)c1cnc[nH]1 (stereo not drawn) [Compound 9, 4-Guanidinobutylamino-(amido)N--[2',2',2'-trifluoroethyl]-BLM]
Antimicrobial potency of Cu-free compound against Bacillus subtilis (Bacillus subtilis): 730 mcg potency/mg
Antimicrobial potency of Cu-free compound against Mycobacterium smegmatis ATCC 607 [1]: 3990 mcg potency/mg

CCCCCCCCNC(=O)C(N)CNC(CC(N)=O)c1nc(N)c(C)c(C(=O)NC(C(=O)NC(C)C(O)C(C)C(=O)NC(C(=O)NCCc2nc(-c3nc(C(=O)NCCCCNC(=N)N)cs3)cs2)C(C)O)C(OC2OC(CO)C(O)C(O)C2OC2OC(CO)C(O)C(OC(N)=O)C2O)c2cnc[nH]2)n1 (stereo not drawn) [Compound 10, 4-Guanidinobutylamino-(amido)N--[octyl]-BLM]
Antimicrobial potency of Cu-free compound against Bacillus subtilis (Bacillus subtilis): 1500 mcg potency/mg
Antimicrobial potency of Cu-free compound against Mycobacterium smegmatis ATCC 607 [1]: 33700 mcg potency/mg

Cc1c(N)nc(C(CC(N)=O)NCC(N)C(=O)NCCCNC(C)c2ccccc2)nc1C(=O)NC(C(=O)NC(C)C(O)C(C)C(=O)NC(C(=O)NCCc1nc(-c2nc(C(=O)NCCCCNC(=N)N)cs2)cs1)C(C)O)C(OC1OC(CO)C(O)C(O)C1OC1OC(CO)C(O)C(OC(N)=O)C1O)c1cnc[nH]1 [Compound 11, 4-Guanidinobutylamino-(amido)N--[3-((S)-1'-phenylethyl)amino-propyl]-BLM]
Antimicrobial potency of Cu-free compound against Bacillus subtilis (Bacillus subtilis): 7036 mcg potency/mg
Antimicrobial potency of Cu-free compound against Mycobacterium smegmatis ATCC 607 [1]: 15729 mcg potency/mg

CCCCN(CCCC)CCCNC(=O)C(N)CNC(CC(N)=O)c1nc(N)c(C)c(C(=O)NC(C(=O)NC(C)C(O)C(C)C(=O)NC(C(=O)NCCc2nc(-c3nc(C(=O)NCCCCNC(=N)N)cs3)cs2)C(C)O)C(OC2OC(CO)C(O)C(O)C2OC2OC(CO)C(O)C(OC(N)=O)C2O)c2cnc[nH]2)n1 (stereo not drawn) [Compound 12]
Antimicrobial potency of Cu-free compound against Bacillus subtilis (Bacillus subtilis): 4384 mcg potency/mg
Antimicrobial potency of Cu-free compound against Mycobacterium smegmatis ATCC 607 [1]: 16438 mcg potency/mg

CCCCCCCCCCCCNC(=O)C(N)CNC(CC(N)=O)c1nc(N)c(C)c(C(=O)NC(C(=O)NC(C)C(O)C(C)C(=O)NC(C(=O)NCCc2nc(-c3nc(C(=O)NCCCCNC(=N)N)cs3)cs2)C(C)O)C(OC2OC(CO)C(O)C(O)C2OC2OC(CO)C(O)C(OC(N)=O)C2O)c2cnc[nH]2)n1 (stereo not drawn) [Compound 13, 4-Guanidinobutylamino-(amido)N--[lauryl]-BLM]
Antimicrobial potency of Cu-free compound against Bacillus subtilis (Bacillus subtilis): 660 mcg potency/mg
Antimicrobial potency of Cu-free compound against Mycobacterium smegmatis ATCC 607 [1]: 7650 mcg potency/mg

Cc1c(N)nc(C(CC(N)=O)NCC(N)C(=O)NCc2ccccc2)nc1C(=O)NC(C(=O)NC(C)C(O)C(C)C(=O)NC(C(=O)NCCc1nc(-c2nc(C(=O)NCCCCNC(=N)N)cs2)cs1)C(C)O)C(OC1OC(CO)C(O)C(O)C1OC1OC(CO)C(O)C(OC(N)=O)C1O)c1cnc[nH]1 (stereo not drawn) [Compound 14, 4-Guanidinobutylamino-(amido)N--[benzyl]-BLM]
Antimicrobial potency of Cu-free compound against Bacillus subtilis (Bacillus subtilis): 1650 mcg potency/mg
Antimicrobial potency of Cu-free compound against Mycobacterium smegmatis ATCC 607 [1]: 28140 mcg potency/mg

Cc1c(N)nc(C(CC(N)=O)NCC(N)C(=O)NC(c2ccccc2)c2ccccc2)nc1C(=O)NC(C(=O)NC(C)C(O)C(C)C(=O)NC(C(=O)NCCc1nc(-c2nc(C(=O)NCCCCNC(=N)N)cs2)cs1)C(C)O)C(OC1OC(CO)C(O)C(O)C1OC1OC(CO)C(O)C(OC(N)=O)C1O)c1cnc[nH]1 (stereo not drawn) [Compound 15, 4-Guanidinobutylamino-(amido)N--[diphenylmethyl]-BLM]
Antimicrobial potency of Cu-free compound against Bacillus subtilis (Bacillus subtilis): 980 mcg potency/mg
Antimicrobial potency of Cu-free compound against Mycobacterium smegmatis ATCC 607 [1]: 42320 mcg potency/mg

Cc1c(N)nc(C(CC(N)=O)NCC(N)C(=O)NC(Cc2ccccc2)c2ccccc2)nc1C(=O)NC(C(=O)NC(C)C(O)C(C)C(=O)NC(C(=O)NCCc1nc(-c2nc(C(=O)NCCCCNC(=N)N)cs2)cs1)C(C)O)C(OC1OC(CO)C(O)C(O)C1OC1OC(CO)C(O)C(OC(N)=O)C1O)c1cnc[nH]1 (stereo not drawn) [Compound 16, 4-Guanidinobutylamino-(amido)N--[1',2'-diphenylethyl]-BLM]
Antimicrobial potency of Cu-free compound against Bacillus subtilis (Bacillus subtilis): 520 mcg potency/mg
Antimicrobial potency of Cu-free compound against Mycobacterium smegmatis ATCC 607 [1]: 24480 mcg potency/mg

Cc1c(N)nc(C(CC(N)=O)NCC(N)C(=O)Nc2ccc3ccccc3c2)nc1C(=O)NC(C(=O)NC(C)C(O)C(C)C(=O)NC(C(=O)NCCc1nc(-c2nc(C(=O)NCCCCNC(=N)N)cs2)cs1)C(C)O)C(OC1OC(CO)C(O)C(O)C1OC1OC(CO)C(O)C(OC(N)=O)C1O)c1cnc[nH]1 (stereo not drawn) [Compound 17, 4-Guanidinobutylamino-(amido)N--[β-naphthyl]-BLM]
Antimicrobial potency of Cu-free compound against Bacillus subtilis (Bacillus subtilis): 1295 mcg potency/mg
Antimicrobial potency of Cu-free compound against Mycobacterium smegmatis ATCC 607 [1]: 33650 mcg potency/mg

Cc1c(N)nc(C(CC(N)=O)NCC(N)C(=O)NCc2ccco2)nc1C(=O)NC(C(=O)NC(C)C(O)C(C)C(=O)NC(C(=O)NCCc1nc(-c2nc(C(=O)NCCCCNC(=N)N)cs2)cs1)C(C)O)C(OC1OC(CO)C(O)C(O)C1OC1OC(CO)C(O)C(OC(N)=O)C1O)c1cnc[nH]1 (stereo not drawn) [Compound 18, 4-Guanidinobutylamino-(amido)N--[2-furylmethyl]-BLM]
Antimicrobial potency of Cu-free compound against Bacillus subtilis (Bacillus subtilis): 1285 mcg potency/mg
Antimicrobial potency of Cu-free compound against Mycobacterium smegmatis ATCC 607 [1]: 19150 mcg potency/mg

Cc1c(N)nc(C(CC(N)=O)NCC(N)C(=O)NCc2cccnc2)nc1C(=O)NC(C(=O)NC(C)C(O)C(C)C(=O)NC(C(=O)NCCc1nc(-c2nc(C(=O)NCCCCNC(=N)N)cs2)cs1)C(C)O)C(OC1OC(CO)C(O)C(O)C1OC1OC(CO)C(O)C(OC(N)=O)C1O)c1cnc[nH]1 (stereo not drawn) [Compound 19, 4-Guanidinobutylamino-(amido)N--[3-pyridylmethyl]-BLM]
Antimicrobial potency of Cu-free compound against Bacillus subtilis (Bacillus subtilis): 1010 mcg potency/mg
Antimicrobial potency of Cu-free compound against Mycobacterium smegmatis ATCC 607 [1]: 5160 mcg potency/mg

Cc1c(N)nc(C(CC(N)=O)NCC(N)C(=O)NCc2nccs2)nc1C(=O)NC(C(=O)NC(C)C(O)C(C)C(=O)NC(C(=O)NCCc1nc(-c2nc(C(=O)NCCCCNC(=N)N)cs2)cs1)C(C)O)C(OC1OC(CO)C(O)C(O)C1OC1OC(CO)C(O)C(OC(N)=O)C1O)c1cnc[nH]1 (stereo not drawn) [Compound 20, 4-Guanidinobutylamino-(amido)N--[2-thiazolylmethyl]-BLM]
Antimicrobial potency of Cu-free compound against Bacillus subtilis (Bacillus subtilis): 900 mcg potency/mg
Antimicrobial potency of Cu-free compound against Mycobacterium smegmatis ATCC 607 [1]: 4870 mcg potency/mg

Cc1c(N)nc(C(CC(N)=O)NCC(N)C(=O)NCc2ccccc2)nc1C(=O)NC(C(=O)NC(C)C(O)C(C)C(=O)NC(C(=O)NCCc1nc(-c2nc(C(=O)NCCCNC(C)c3ccccc3)cs2)cs1)C(C)O)C(OC1OC(CO)C(O)C(O)C1OC1OC(CO)C(O)C(OC(N)=O)C1O)c1cnc[nH]1 [Compound 23, 3-((S)-1'-phenylethyl)aminopropylamino-(amido)N--[benzyl]-BLM]
Antimicrobial potency of Cu-free compound against Bacillus subtilis (Bacillus subtilis): 1380 mcg potency/mg
Antimicrobial potency of Cu-free compound against Mycobacterium smegmatis ATCC 607 [1]: 38348 mcg potency/mg
